# Values of other authors as cited in patent publication US20070213332A1, “Prodrugs Of Substituted Amino Heterobicycles Which Modulate The Function Of The Vanilloid-1 Receptor (Vr1)” (priority 2004, published 2007).
# pIC50: −log10 of the molar value.
# Target: VR1 (Rattus norvegicus, UniProt O35433)
# Conditions: Walpole et al., J. Med. Chem., 37:1942, 1994
# Chain of VR1 (O35433 whole entry): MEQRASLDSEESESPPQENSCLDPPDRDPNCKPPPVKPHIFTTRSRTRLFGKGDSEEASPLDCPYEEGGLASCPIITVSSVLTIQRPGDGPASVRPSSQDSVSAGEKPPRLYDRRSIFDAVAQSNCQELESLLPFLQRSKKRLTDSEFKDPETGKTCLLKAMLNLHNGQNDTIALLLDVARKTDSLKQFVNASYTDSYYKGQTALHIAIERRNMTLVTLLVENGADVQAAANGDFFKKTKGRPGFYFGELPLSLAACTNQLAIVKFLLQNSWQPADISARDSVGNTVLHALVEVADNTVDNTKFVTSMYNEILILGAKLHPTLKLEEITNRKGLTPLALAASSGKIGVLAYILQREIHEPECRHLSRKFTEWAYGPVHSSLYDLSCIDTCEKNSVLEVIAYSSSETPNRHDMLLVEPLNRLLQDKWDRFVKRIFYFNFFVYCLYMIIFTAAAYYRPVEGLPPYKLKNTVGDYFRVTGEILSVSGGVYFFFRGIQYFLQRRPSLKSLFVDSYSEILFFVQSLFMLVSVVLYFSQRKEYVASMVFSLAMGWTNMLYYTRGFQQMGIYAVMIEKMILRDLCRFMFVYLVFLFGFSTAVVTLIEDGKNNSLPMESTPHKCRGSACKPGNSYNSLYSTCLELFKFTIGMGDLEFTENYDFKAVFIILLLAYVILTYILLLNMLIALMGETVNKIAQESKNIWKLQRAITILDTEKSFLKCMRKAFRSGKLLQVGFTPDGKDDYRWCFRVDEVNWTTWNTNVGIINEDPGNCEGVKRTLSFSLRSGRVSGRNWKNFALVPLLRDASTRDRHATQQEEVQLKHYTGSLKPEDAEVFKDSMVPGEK
compound,measurement,value
Oc1cc2c(cc1O)CN(C(=S)NCCc1ccc(Cl)cc1)CCC2 [capsazepine],pIC50,6.38
